These results are taken from US20260034088A1, “SULFOPROPANOIC ACID DERIVATIVES FOR TREATING NEURODEGENERATIVE DISORDERS” (Alzheon, Inc., priority 2018, published 2026).

Series [1] concerns the target T1, recombinant human Aβ42 peptide (Homo sapiens, UniProt P05067).
T1 construct: recombinant human Aβ42 peptide; purchased BioLegend 843801
Description: Ion mobility mass spectrometry (IMS MS) anti-Aβ42 oligomer activity. Type of series: biochemical. Conditions: for inhibition of formation of Aβ42 oligomers: after 24 hours in vitro. The protocol: The conditions used for mass spectrometry, using a Waters Synapt G2-S, were as follows: positive polarity in sensitivity mode, capillary=2.5 kV, nebulizer=2 mbar, source temperature=80° C., desolvation temperature=60° C., sample cone setting=35 V, source offset setting=60 V, and mass range=500 to 4000 m/z. These conditions were maintained throughout the study to ensure consistency of the data and to avoid influencing the detection of oligomers due to preferential ionization conditions.
Samples were directly infused into the mass spectrometer at a flow rate of 10 μL/min using a Protea PM-1000 Syringe Pump and Hamilton 1 mL Syringe. The data acquisition of the amyloid peptide was performed using a Waters Synapt G2-S quadrupole time of flight mass spectrometer (Q-TOF MS) with traveling wave ion mobility (Waters Corp., Milford, MA). The data were acquired using the systems sensitivity mode to allow for the detection of the less abundant oligomers. Samples were infused at room temperature. The IMS MS studies were conducted at Protea, Inc. (Morgantown, WV).
1 mg of recombinant human Aβ42 peptide from BioLegend (99% purity, cat #843801) was reconstituted in 200 μL of Fisher Optima LC/MS grade water (cat #W6-1) and vortexed vigorously for 2 minutes to solubilize the peptide creating a 5 mg/mL solution. Samples were then diluted to a final concentration of 22 pmol/μL prior to incubation. The sample mixtures were then incubated at room temperature for 0, 4 and 24 hours. After the acquisition of incubated samples was completed, the raw data were analyzed using the Waters MassLynx v2.4 suite with DriftScover v2.7 to visualize drift times for the peptide.
Aβ42 species characterization using IMS MS was performed by direct infusion at 22 pmol/μL in water. The peptide was prepared in water to maintain the native state conformation of the peptide and ion mobility data acquisition was performed to detect and characterize the conformational changes of the native state monomer and any oligomers that may have formed during the incubation.
The data acquisition for Aβ42 peptide was performed using a Waters Synapt G2-S quadrupole time of flight mass spectrometer (Q-TOF MS) with traveling wave ion mobility (Waters Corp., Milford, MA). The data were acquired using the systems sensitivity mode to allow for the detection of the less abundant oligomers. Samples were infused at room temperature as above.
1 mg of 3-SPA was reconstituted in 1 mL of Fisher Optima LC/MS grade water (cat #W6-1) and vortexed vigorously for 2 minutes until completely dissolved. The sample was then diluted to create 220 pmol/μL, and […] solutions to perform a 100-fold, and 1,000-fold molar excess for the binding experiments with Aβ42 peptide. […]

The nature of series [2]: Brain penetration of oral 3-SPA in male SD rats (brain, CSF, plasma). Type of series: in vivo, Sprague-Dawley rats. As to conditions: oral 30 mg/kg. The protocol: A separate group of animals was dosed orally at 30 mg/kg and terminal brain, CSF and plasma samples were collected at 1, 2, 6, and 24 hr (3 animals for each time point) for bioanalyses of 3-SPA in brain and CSF, and to estimate brain penetration relative to plasma concentrations. The in-life study was performed at Agilux Laboratories (Worcester, MA) following quality standards in line with Good Laboratory Practice. Bioanalyses of rat plasma, CSF and brain was preformed using LC-MS/MS at Nextcea. Prior to processing rat brains for bioanalysis, the brains were perfused to remove pooled blood. Pharmacokinetic data analyses were conducted using Winnonlin Professional v5.0.1 (Pharsight, Mountain View, CA).
The plasma concentration of a single dose of 3-SPA, dissolved in saline as a clear solution, administered orally and intravenously to rats at a dose level of 30 mg/kg and 10 mg/kg, respectively, are shown in FIG. 9. Brain, CSF and corresponding plasma levels after a single oral dose of dose of 30 mg/kg of 3-SPA at 1, 2, 6, and 24 hr are shown in FIG. 10. Mean PK curves were used for calculation of pharmacokinetic parameters.

Each structure is given as a SMILES string. Values joined by “and” are separate entries in the source; they are usually repeats but may differ in a detail not shown here. Equal entries are not always repeated.

T1 sequence (P05067 672-713 limits assumed): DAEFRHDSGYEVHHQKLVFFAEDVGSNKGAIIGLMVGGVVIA

In the case of `O=C(O)CCS(=O)(=O)O` [Compound 3-SPA, 3-sulfopropanoic acid], the “Aβ42 oligomer species detected (not inhibited)” value is “dimers, trimers and pentamers” in series [1] (4 hr incubation, Aβ42:compound 1:1000); “Only pentamers were detected” in series [1] (24 hours incubation, 1,000-fold excess of compound). Besides, the “inhibition of formation of Aβ42 oligomers” value in series [1] is “Near complete prevention of formation of Aβ42 oligomers except for pentamers”. In series [2], the “Brain/Plasma (AUC %)” value is 25% and 25.3%.

Take `NCCCS(=O)(=O)O` [Tramiprosate, 3-amino-1-propanesulfonic acid, reference compound]: the “inhibition of formation of Aβ42 oligomers” value in series [1] is given as “complete inhibition”.
